Measurements reported in patent US20260364184A1, “COMPOUND BASED ON OXOISOINDOLINYL-SUBSTITUTED TETRAHYDROPYRIMIDINE-DIONE AND USE THEREOF” (GLUETACS THERAPEUTICS (SHANGHAI) CO., LTD., priority 2023, published 2026).

What was measured:
Assay type in all cases: cell-based
Settings in all cases: hPBMC Cell; 24 hours
IKZF3 = target: T1, IKZF3 (Homo sapiens, UniProt Q96SW2+Q9UKT9); assay: Western blot degradation of IKZF3
T1 construct: expression of target proteins in cells; endogenous in cells
Procedure: (§1) Conventional Western blot assay was performed to evaluate the effects of the compounds of the present disclosure on the expression of target proteins in cells.
(§2) (1) Cell Seeding and Protein Harvesting: The selected cells were processed according to the cell seeding procedure and protein harvesting procedure in Table II-2.
(§3) (2) To the collected supernatant, 5×SDS sample loading buffer was added, followed by denaturation at 95 °C for 5 minutes. The denatured samples were then separated by SDS-PAGE electrophoresis on a polyacrylamide gel. Proteins were transferred to a nitrocellulose membrane (0.45 μm NC membrane), blocked with blocking buffer at room temperature for 1 hour, and subjected to antibody incubation and development procedures according to the antibody manufacturer's instructions (Cell Signaling Technology).
(§4) Half-Maximal Degradation Concentration value (the drug concentration required for degrading proteins by 50%, abbreviated as DC50) reads method: comparing the grayscale values of Western blot bands from drug-treated samples with those from blank DMSO-treated controls, and identifying the drug concentration range at which the grayscale value is half that of the DMSO-treated control bands.
(§5) DC50 values can be calculated using ImageJ software to measure grayscale values of Western blot bands from drug-treated samples. The concentration-response curve is fitted to estimate the drug concentration corresponding to half the grayscale value.
(§6) Target protein remaining (%) refers to the percentage of target protein remaining in cells after treatment with protein degrader compounds.
(§7) Calculation method for target protein remaining (%): Use ImageJ software to measure grayscale values of Western blot bands from drug (protein degrader)-treated samples. The grayscale value of drug-treated bands is divided by that of internal control protein bands, and the resulting quotient is normalized to obtain the relative percentage of remaining target protein after protein degrader treatment.
(§8) Target protein degradation rate (%)=1−target protein remaining (%).

GSPT1 = target: T2, GSPT1 (Homo sapiens, UniProt P15170+Q96SW2); assay: Western blot degradation of GSPT1
T2 construct: expression of target proteins in cells; endogenous in cells
Procedure: as §1, §2, §3, §4, §5, §6, §7, §8

IKZF1 = target: T3, IKZF1 (Homo sapiens, UniProt Q13422+Q96SW2); assay: Western blot degradation of IKZF1
T3 construct: expression of target proteins in cells; endogenous in cells
Procedure: as §1, §2, §3, §4, §5, §6, §7, §8

IKZF2 = target: T4, IKZF2 (Homo sapiens, UniProt Q96SW2+Q9UKS7); assay: Western blot degradation of IKZF2
T4 construct: expression of target proteins in cells; endogenous in cells
Procedure: as §1, §2, §3, §4, §5, §6, §7, §8

CK1α = target: T5, CK1α (Homo sapiens, UniProt P48729+Q96SW2); assay: Western blot degradation of CK1α
T5 construct: expression of target proteins in cells; endogenous in cells
Procedure: as §1, §2, §3, §4, §5, §6, §7, §8

WEE1 = target: T6, WEE1 (Homo sapiens, UniProt P30291+Q96SW2); assay: Western blot degradation of WEE1
T6 construct: expression of target proteins in cells; endogenous in cells
Procedure: as §1, §2, §3, §4, §5, §6, §7, §8

T4 sequence (Q9UKS7 whole entry): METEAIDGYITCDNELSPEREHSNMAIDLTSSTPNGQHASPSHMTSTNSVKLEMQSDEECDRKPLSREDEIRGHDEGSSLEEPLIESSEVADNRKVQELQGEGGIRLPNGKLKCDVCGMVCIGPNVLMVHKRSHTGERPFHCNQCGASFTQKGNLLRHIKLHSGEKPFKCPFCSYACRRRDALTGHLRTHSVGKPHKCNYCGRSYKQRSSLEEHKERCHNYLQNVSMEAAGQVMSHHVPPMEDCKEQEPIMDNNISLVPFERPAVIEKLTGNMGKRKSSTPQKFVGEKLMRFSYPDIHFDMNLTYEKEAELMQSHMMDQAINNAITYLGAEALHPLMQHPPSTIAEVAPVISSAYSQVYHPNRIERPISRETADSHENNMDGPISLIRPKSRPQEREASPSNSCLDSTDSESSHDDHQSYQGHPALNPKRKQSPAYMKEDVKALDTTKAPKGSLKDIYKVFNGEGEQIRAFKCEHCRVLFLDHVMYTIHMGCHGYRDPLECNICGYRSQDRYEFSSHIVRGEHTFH
T4 sequence (Q96SW2 whole entry): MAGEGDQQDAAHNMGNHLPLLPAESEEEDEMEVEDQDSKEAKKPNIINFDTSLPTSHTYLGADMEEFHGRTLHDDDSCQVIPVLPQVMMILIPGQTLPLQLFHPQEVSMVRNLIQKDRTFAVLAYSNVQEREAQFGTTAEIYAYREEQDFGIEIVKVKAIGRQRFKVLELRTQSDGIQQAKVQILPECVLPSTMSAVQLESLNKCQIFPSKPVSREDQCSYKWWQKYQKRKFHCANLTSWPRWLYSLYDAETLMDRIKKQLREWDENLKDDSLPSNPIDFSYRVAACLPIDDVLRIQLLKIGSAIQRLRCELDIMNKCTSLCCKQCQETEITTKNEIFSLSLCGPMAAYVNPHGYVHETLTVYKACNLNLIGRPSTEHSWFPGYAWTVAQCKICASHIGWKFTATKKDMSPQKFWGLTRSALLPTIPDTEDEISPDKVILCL
T4 sequence (Q16531 whole entry partner): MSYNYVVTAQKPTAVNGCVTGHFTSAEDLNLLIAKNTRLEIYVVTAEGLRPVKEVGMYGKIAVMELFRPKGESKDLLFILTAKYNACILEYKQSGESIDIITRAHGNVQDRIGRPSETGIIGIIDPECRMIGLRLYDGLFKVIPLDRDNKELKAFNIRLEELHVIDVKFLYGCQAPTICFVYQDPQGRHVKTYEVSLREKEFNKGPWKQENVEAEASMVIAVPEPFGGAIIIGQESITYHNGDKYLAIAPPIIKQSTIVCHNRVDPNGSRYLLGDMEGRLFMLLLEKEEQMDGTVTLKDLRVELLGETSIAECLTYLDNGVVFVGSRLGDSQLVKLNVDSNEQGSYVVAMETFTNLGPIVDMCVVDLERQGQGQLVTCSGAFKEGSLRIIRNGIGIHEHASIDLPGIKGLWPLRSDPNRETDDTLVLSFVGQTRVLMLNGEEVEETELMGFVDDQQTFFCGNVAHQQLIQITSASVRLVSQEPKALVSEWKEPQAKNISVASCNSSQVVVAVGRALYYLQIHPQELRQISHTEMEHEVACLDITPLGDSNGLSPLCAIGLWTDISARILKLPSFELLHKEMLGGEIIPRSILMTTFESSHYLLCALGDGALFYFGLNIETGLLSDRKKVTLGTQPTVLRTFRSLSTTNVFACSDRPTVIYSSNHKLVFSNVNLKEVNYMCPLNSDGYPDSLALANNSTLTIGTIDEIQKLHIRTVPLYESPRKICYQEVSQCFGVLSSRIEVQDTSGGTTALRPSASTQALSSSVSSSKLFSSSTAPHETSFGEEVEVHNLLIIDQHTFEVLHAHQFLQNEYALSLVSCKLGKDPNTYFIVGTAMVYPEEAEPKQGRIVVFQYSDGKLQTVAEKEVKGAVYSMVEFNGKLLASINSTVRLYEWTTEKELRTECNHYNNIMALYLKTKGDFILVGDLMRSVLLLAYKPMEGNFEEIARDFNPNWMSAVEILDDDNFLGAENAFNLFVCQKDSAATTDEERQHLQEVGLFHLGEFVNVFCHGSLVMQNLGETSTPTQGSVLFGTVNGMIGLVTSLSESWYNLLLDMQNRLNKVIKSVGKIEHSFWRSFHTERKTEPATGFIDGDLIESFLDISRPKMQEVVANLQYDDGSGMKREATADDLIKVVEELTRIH
T3 sequence (Q13422 whole entry): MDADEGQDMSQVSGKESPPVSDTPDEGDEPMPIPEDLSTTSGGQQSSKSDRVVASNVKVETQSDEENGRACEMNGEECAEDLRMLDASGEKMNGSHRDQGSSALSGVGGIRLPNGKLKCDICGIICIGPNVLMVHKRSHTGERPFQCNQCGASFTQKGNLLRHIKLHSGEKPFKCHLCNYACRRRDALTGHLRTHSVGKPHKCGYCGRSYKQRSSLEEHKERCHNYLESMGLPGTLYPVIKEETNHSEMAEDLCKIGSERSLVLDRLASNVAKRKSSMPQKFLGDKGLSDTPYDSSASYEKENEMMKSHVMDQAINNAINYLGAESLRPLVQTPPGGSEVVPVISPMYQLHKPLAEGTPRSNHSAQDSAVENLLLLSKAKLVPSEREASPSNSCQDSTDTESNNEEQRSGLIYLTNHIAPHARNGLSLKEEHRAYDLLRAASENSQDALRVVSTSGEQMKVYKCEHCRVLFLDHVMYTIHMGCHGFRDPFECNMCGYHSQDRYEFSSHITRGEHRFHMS
T3 sequence (Q96SW2 whole entry): as the sequence (Q96SW2 whole entry) above
T3 sequence (Q16531 whole entry partner): as the sequence (Q16531 whole entry partner) above
T2 sequence (P15170 whole entry): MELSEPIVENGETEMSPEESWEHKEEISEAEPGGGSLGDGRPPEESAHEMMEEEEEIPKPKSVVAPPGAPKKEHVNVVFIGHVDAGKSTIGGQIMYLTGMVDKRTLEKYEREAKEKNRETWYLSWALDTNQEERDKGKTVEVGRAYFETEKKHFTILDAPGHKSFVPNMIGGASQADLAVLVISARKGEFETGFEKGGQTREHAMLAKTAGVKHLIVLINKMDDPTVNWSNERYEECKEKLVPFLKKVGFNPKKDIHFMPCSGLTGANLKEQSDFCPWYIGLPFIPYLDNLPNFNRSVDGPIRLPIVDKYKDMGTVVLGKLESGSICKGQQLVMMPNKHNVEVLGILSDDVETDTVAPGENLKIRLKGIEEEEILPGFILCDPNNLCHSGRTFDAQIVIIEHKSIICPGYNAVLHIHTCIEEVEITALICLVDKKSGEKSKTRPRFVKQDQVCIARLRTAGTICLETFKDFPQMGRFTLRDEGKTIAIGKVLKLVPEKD
T2 sequence (Q96SW2 whole entry): as the sequence (Q96SW2 whole entry) above
T2 sequence (Q16531 whole entry partner): as the sequence (Q16531 whole entry partner) above
T6 sequence (P30291 whole entry): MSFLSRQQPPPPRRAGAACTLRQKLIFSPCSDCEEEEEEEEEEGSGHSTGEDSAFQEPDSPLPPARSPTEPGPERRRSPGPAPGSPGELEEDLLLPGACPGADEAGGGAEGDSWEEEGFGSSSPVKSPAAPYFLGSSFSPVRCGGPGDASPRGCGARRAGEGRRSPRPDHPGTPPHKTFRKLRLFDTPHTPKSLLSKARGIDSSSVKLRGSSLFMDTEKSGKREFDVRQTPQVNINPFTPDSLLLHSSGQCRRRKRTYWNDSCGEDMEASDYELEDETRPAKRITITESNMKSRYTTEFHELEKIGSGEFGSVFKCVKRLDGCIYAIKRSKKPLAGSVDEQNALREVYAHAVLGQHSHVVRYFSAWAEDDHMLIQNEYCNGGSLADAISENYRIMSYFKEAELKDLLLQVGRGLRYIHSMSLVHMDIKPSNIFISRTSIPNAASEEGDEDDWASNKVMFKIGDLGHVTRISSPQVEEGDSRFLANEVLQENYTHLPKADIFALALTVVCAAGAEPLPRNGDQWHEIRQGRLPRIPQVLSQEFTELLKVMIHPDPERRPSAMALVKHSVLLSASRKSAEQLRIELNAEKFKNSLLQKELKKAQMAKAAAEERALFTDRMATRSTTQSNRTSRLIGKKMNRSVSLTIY
T6 sequence (Q96SW2 whole entry): as the sequence (Q96SW2 whole entry) above
T6 sequence (Q16531 whole entry partner): as the sequence (Q16531 whole entry partner) above
T1 sequence (Q9UKT9 whole entry): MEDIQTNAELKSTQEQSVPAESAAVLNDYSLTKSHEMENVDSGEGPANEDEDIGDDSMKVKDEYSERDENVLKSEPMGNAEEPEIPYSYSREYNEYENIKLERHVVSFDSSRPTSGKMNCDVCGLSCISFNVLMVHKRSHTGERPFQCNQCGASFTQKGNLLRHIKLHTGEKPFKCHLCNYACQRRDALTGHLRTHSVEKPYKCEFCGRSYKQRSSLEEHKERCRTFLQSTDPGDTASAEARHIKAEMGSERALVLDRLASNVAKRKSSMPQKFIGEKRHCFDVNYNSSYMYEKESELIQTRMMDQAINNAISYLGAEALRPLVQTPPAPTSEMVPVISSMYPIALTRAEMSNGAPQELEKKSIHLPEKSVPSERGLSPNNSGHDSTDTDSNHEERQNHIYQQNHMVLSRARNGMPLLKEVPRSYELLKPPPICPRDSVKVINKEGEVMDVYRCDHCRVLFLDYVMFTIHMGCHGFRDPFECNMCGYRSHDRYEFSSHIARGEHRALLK
T1 sequence (Q96SW2 whole entry): as the sequence (Q96SW2 whole entry) above
T1 sequence (Q16531 whole entry partner): as the sequence (Q16531 whole entry partner) above

| Degradation of substrate protein IKZF3 (substrate protein remaining %) (IKZF3) | Degradation of substrate protein GSPT1 (substrate protein remaining %) (GSPT1) | Degradation of substrate protein IKZF2 (substrate protein remaining %) (IKZF2) | Degradation of substrate protein WEE1 (substrate protein remaining %) (WEE1) | SMILES | Degradation of substrate protein IKZF1 (substrate protein remaining %) (IKZF1) | Degradation of substrate protein CK1α (substrate protein remaining %) (CK1α) |
| --- | --- | --- | --- | --- | --- | --- |
| A (0%≤substrate protein remaining %≤80%) | A (0%≤substrate protein remaining %≤80%) | A (0%≤substrate protein remaining %≤80%) | A (0%≤substrate protein remaining %≤80%) | O=C1CCN(N2Cc3c(O)cccc3C2=O)C(=O)N1 [GT-05570, 1-(4-hydroxy-1-oxoisoindolin-2-yl)dihydropyrimidine-2,4(1H, 3H)-dione] | A (0%≤substrate protein remaining %≤80%) | A (0%≤substrate protein remaining %≤80%) |
| A (0%≤substrate protein remaining %≤80%) | A (0%≤substrate protein remaining %≤80%) | A (0%≤substrate protein remaining %≤80%) | A (0%≤substrate protein remaining %≤80%) | O=C1CCN(N2C(=O)c3ccc(N4C[C@@H]5C[C@H]4CN5)cc3C2=O)C(=O)N1 [GT-05582, 5-((1S, 4S)-2,5-diazabicyclo[2.2.1]heptan-2-yl)-2-(2,4-dioxotetrahydropyrimidin-1(2H)-yl)isoindoline-1,3-dione] | B (80%<substrate protein remaining %≤100%) | A (0%≤substrate protein remaining %≤80%) |
| A (0%≤substrate protein remaining %≤80%) | A (0%≤substrate protein remaining %≤80%) | A (0%≤substrate protein remaining %≤80%) | A (0%≤substrate protein remaining %≤80%) | O=C1CCN(N2C(=O)c3cccc(F)c3C2=O)C(=O)N1 [GT-05576, 2-(2,4-dioxotetrahydropyrimidin-1(2H)-yl)-4-fluoroisoindoline-1,3-dione] | B (80%<substrate protein remaining %≤100%) | A (0%≤substrate protein remaining %≤80%) |

| SMILES | Degradation of substrate protein IKZF3 (substrate protein remaining %) (IKZF3) | Degradation of substrate protein GSPT1 (substrate protein remaining %) (GSPT1) | Degradation of substrate protein IKZF2 (substrate protein remaining %) (IKZF2) | Degradation of substrate protein WEE1 (substrate protein remaining %) (WEE1) | Degradation of substrate protein IKZF1 (substrate protein remaining %) (IKZF1) | Degradation of substrate protein CK1α (substrate protein remaining %) (CK1α) |
| --- | --- | --- | --- | --- | --- | --- |
| O=CC1CCN(c2cccc3c2C(=O)N(N2CCC(=O)NC2=O)C3=O)CC1 [GT-05590, 1-(2-(2,4-dioxotetrahydropyrimidin-1(2H)-yl)-1,3-dioxoisoindolin-4-yl)piperidine-4-carbaldehyde] | A (0%≤substrate protein remaining %≤80%) | B (80%<substrate protein remaining %≤100%) | B (80%<substrate protein remaining %≤100%) | B (80%<substrate protein remaining %≤100%) | B (80%<substrate protein remaining %≤100%) | B (80%<substrate protein remaining %≤100%) |
| O=CC1CCN(C2CCN(c3ccc4c(c3)C(=O)N(N3CCC(=O)NC3=O)C4=O)CC2)CC1 [GT-05595, 1′-(2-(2,4-dioxotetrahydropyrimidin-1(2H)-yl)-1,3-dioxoisoindolin-5-yl)-[1,4′-bipiperidine]-4-carbaldehyde] | B (80%<substrate protein remaining %≤100%) | B (80%<substrate protein remaining %≤100%) | A (0%≤substrate protein remaining %≤80%) | B (80%<substrate protein remaining %≤100%) | B (80%<substrate protein remaining %≤100%) | B (80%<substrate protein remaining %≤100%) |
| O=C1CCN(N2C(=O)c3ccc(N4CC5CCC(C4)N5)cc3C2=O)C(=O)N1 [GT-05589, 5-(3,8-diazabicyclo[3.2.1]octan-3-yl)-2-(2,4-dioxotetrahydropyrimidin-1(2H)-yl)isoindoline-1,3-dione] | A (0%≤substrate protein remaining %≤80%) | B (80%<substrate protein remaining %≤100%) | B (80%<substrate protein remaining %≤100%) | B (80%<substrate protein remaining %≤100%) | B (80%<substrate protein remaining %≤100%) | B (80%<substrate protein remaining %≤100%) |
| O=C1CCN(N2C(=O)c3ccc(N4CCC(N5CCNCC5)CC4)cc3C2=O)C(=O)N1 [GT-05594, 2-(2,4-dioxotetrahydropyrimidin-1(2H)-yl)-5-(4-(piperazin-1-yl)piperidin-1-yl)isoindoline-1,3-dione] | B (80%<substrate protein remaining %≤100%) | A (0%≤substrate protein remaining %≤80%) | A (0%≤substrate protein remaining %≤80%) | B (80%<substrate protein remaining %≤100%) | B (80%<substrate protein remaining %≤100%) | B (80%<substrate protein remaining %≤100%) |
| O=C1CCN(N2C(=O)c3cccc(N4CCNCC4)c3C2=O)C(=O)N1 [GT-05591, 2-(2,4-dioxotetrahydropyrimidin-1(2H)-yl)-4-(piperazin-1-yl)isoindoline-1,3-dione] | A (0%≤substrate protein remaining %≤80%) | B (80%<substrate protein remaining %≤100%) | B (80%<substrate protein remaining %≤100%) | B (80%<substrate protein remaining %≤100%) | B (80%<substrate protein remaining %≤100%) | B (80%<substrate protein remaining %≤100%) |
| O=C1CCN(N2C(=O)c3ccc(N4CCC(N5CCNCC5)C(F)(F)C4)cc3C2=O)C(=O)N1 (stereo not drawn) [GT-04990, 5-(3,3-difluoro-4-(piperazin-1-yl)piperidin-1-yl)-2-(2,4-dioxotetrahydropyrimidin-1(2H)-yl)isoindoline-1,3-dione] | B (80%<substrate protein remaining %≤100%) | A (0%≤substrate protein remaining %≤80%) | B (80%<substrate protein remaining %≤100%) | A (0%≤substrate protein remaining %≤80%) | B (80%<substrate protein remaining %≤100%) | B (80%<substrate protein remaining %≤100%) |
| NCc1ccc2c(c1)C(=O)N(N1CCC(=O)NC1=O)C2=O [GT-07968, 5-(aminomethyl)-2-(2,4-dioxotetrahydropyrimidin-1(2H)-yl)isoindoline-1,3-dione] | A (0%≤substrate protein remaining %≤80%) | B (80%<substrate protein remaining %≤100%) | A (0%≤substrate protein remaining %≤80%) | A (0%≤substrate protein remaining %≤80%) | A (0%≤substrate protein remaining %≤80%) | A (0%≤substrate protein remaining %≤80%) |
| O=C1CCN(N2Cc3cc(CO)ccc3C2=O)C(=O)N1 [GT-05567, 1-(5-(hydroxymethyl)-1-oxoisoindolin-2-yl)dihydropyrimidine-2,4(1H, 3H)-dione] | A (0%≤substrate protein remaining %≤80%) | A (0%≤substrate protein remaining %≤80%) | B (80%<substrate protein remaining %≤100%) | A (0%≤substrate protein remaining %≤80%) | A (0%≤substrate protein remaining %≤80%) | A (0%≤substrate protein remaining %≤80%) |
